Source: publication PMC8745601 (International Journal of Molecular Sciences, 2021)

Key:
[1] = biological target: T1, BCRP (Homo sapiens, UniProt Q9UNQ0); experiment: Transwell assay, MDCKII cells stably expressing BCRP; format: cell-based; settings: 100 µmol/L doxorubicin; MDCKII-BCRP on Transwell
T1 construct: expressed in transfected cells; host or cells: MDCKII
T1 sequence (Q9UNQ0 1-655): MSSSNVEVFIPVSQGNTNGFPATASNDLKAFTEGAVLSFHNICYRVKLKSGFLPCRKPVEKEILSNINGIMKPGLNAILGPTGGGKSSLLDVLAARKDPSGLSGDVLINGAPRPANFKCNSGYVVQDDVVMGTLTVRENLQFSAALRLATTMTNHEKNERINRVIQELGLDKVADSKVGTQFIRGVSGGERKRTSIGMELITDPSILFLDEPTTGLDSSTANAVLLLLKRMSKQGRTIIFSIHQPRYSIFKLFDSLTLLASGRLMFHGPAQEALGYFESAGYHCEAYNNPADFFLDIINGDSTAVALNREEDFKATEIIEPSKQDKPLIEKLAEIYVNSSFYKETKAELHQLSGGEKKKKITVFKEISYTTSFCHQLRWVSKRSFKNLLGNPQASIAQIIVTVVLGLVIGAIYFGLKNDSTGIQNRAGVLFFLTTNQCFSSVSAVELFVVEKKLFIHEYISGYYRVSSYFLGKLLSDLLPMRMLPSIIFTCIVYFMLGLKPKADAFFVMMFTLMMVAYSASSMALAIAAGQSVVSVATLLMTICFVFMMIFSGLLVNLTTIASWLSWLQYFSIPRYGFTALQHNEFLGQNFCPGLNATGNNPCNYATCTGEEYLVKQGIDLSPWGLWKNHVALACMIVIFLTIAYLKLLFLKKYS
Description: In brief, MDCKII cells stably expressing P-gp or BCRP were seeded on 0.4 µm Transwell® membrane inserts (200.000 cells/insert; Ø6.5 mm, growth area 0.33 cm2) and allowed to differentiate for five days. The integrity of the monolayer was confirmed by monitoring the trans-epithelial electrical resistance (TEER) using the EVOMX system (WPI, Sarasota, FL, USA). […] Every 30 min, the incubation buffer was removed from the receiver compartment and replaced by a freshly preheated buffer for a total time of 2.5 h.

[2] = biological target: T2, OATP1A2*2 (Homo sapiens, UniProt P46721, I13T); experiment: in vitro
T2 sequence (P46721 1-670 I13T): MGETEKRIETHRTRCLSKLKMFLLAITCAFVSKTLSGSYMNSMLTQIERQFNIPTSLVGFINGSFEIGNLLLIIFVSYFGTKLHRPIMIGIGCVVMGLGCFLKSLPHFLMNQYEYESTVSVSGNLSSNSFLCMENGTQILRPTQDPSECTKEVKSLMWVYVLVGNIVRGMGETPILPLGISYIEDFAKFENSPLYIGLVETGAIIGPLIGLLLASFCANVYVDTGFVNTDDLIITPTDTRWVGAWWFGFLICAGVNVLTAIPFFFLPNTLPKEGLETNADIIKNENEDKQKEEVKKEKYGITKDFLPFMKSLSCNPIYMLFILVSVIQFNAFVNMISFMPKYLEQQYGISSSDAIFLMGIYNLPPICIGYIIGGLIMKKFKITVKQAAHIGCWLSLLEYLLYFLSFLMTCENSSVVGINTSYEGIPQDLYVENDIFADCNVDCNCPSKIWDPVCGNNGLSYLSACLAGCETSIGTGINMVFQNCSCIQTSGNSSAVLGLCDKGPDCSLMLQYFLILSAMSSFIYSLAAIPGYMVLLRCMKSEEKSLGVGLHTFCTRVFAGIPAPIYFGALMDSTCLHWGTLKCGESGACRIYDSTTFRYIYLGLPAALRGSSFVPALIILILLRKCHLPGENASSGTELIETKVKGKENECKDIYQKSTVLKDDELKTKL
Description: Cellular uptake studies: For all transport studies, cells were seeded in 24-well plates and incubated in a full growth medium at an initial density of 200,000 cells/well for 3 days. Before starting each transport experiment, cells were washed with a pre-warmed (37 °C) incubation buffer [64]. […] Protein concentration of whole cell lysate was determined to quantify cell density after each experiment using the BCA assay according to the manufacturer’s instructions (Pierce, Rockford, IL, USA).
Protein abundance of OATP1A2*1–*3 and OCT1–3 were measured by mass spectrometry-based targeted proteomics using a validated LC-MS/MS method as recently described [65].
200 μL of each cell lysate sample was mixed with 25 μL internal standard (5 µg/mL daunorubicin), 25 μL citric acid (1%), and 400 μL ice-cold acetonitrile for protein precipitation. […] The clear supernatant was transferred to HPLC vials. The measurement and quantitative evaluation were carried out using the LC-MS/MS system QTRAP 4000® (AB SCIEX, Darmstadt, Germany) and the Software Analyst® 1.4 (Applied Biosystems, Darmstadt, Germany).
Statistical evaluation: All experiments were performed at least three times unless otherwise noted. The OATP1A2*1–*3 and OCT1-3 net uptake was obtained by subtracting the uptake into wild-type cells from that of the transporter-transfected cells. […]

## COc1cccc2c1C(=O)c1c(O)c3c(c(O)c1C2=O)C[C@@](O)(C(=O)CO)C[C@@H]3O[C@H]1C[C@H](N)[C@H](O)[C@H](C)O1 [doxorubicin, Doxorubicin]
[1]
  vectorial transport of doxorubicin by BCRP: vectorial transport from the basolateral to the apical compartment
[2]; HEK293 cells stably expressing OATP1A2*2
  Km: 5.84 ± 3.95 µM
[2]; other cell line
  microsomal CLint: 1.39 ± 0.65 µL/min/mg
